The source made the active and inactive calls. No cut-off for these calls is given here.
Legend:
Influenza A virus [1] = experiment: Antiviral activity against Influenza A virus H1N1 (A/Weiss/43)-infected in BALB/c mouse assessed as reduction in TLR-7 gene expression in lungs at 25 to 100 mg/kg/day administered intranasally for 6 days starting from 3 hrs post-viral infection by qRT-PCR analysis; type: functional, organism-based; conditions: dose 25-100 mg/kg/day, route nas, time 6.0 day
Influenza A virus [2] = experiment: Antiviral activity against Influenza A virus H1N1 infected in human A549 cells assessed as decrease in apoptosis by measuring decrease in cleaved PARP protein expression at 25 to 50 uM measured after 24 hrs by western blot analysis; type: functional, organism-based; conditions: dose 25-50 µM
Influenza A virus [3] = experiment: Inhibition of Influenza A virus replication infected in dog MDCK cells assessed as downregulation of virus M gene expression at 25 to 50 uM measured after 24 to 72 hrs post-infection by qRT-PCR analysis; type: functional, organism-based; conditions: dose 25-50 µM
MDCK = experiment: Cytotoxicity against dog MDCK cells assessed as cell pathological changes at 50 uM by microscopic analysis; type: toxicity, cell-based, Canis lupus familiaris
[4] = Toxicity in BALB/c mouse infected with Influenza A virus H1N1 (A/Weiss/43) assessed as liver pathological changes at 25 to 100 mg/kg/day administered intranasally for 6 days starting from 3 hrs post-viral infection by Hematoxylin-Eosin staining based analysis; type: organism-based; conditions: in vivo, inhaled_or_intranasal, 144 h, dose 25-100 mg/kg/day, time 6 day
Influenza A virus [5] = experiment: Antiviral activity against Influenza A virus H1N1 infected in human A549 cells assessed as decrease in RIG-1 pathway related protein expression by measuring decrease in NF-kappaB p65 protein expression at 25 to 50 uM measured after 24 hrs by western blot analysis; type: functional, organism-based; conditions: dose 25-50 µM
Influenza A virus [6] = experiment: Antiviral activity against Influenza A virus H1N1 infected in human A549 cells assessed as decrease in cytokine gene expression by measuring decrease in IFN-beta gene expression at 25 to 50 uM measured after 24 hrs by qRT-PCR analysis; type: functional, organism-based; conditions: dose 25-50 µM
Influenza A virus [7] = experiment: Antiviral activity against Influenza A virus H1N1 (A/Weiss/43)-infected in BALB/c mouse assessed as reduction in viral NP protein expression in lungs at 25 to 100 mg/kg/day administered intranasally for 6 days starting from 3 hrs post-viral infection by immunohistochemistry; type: functional, organism-based; conditions: dose 25-100 mg/kg/day, route nas, time 6.0 day
Influenza A virus [8] = experiment: Antiviral activity against Influenza A virus H1N1 (A/Weiss/43)-infected in dog MDCK cells assessed as reduction in oxidative stress by measuring proportion of cells with excessive ROS accumulation at 50 uM treated at 2 hrs post-infection and measured after 36 hrs by DCFH-DA staining based flow cytometry (reference value: 30.6%); type: functional; design: scale not given: the % may be the effect or the level left
Influenza A virus [9] = experiment: Antiviral activity against Influenza A virus H1N1 (A/Weiss/43)-infected in BALB/c mouse assessed as reduction in viral M mRNA expression in lungs at 25 to 100 mg/kg/day administered intranasally for 2 to 6 days starting from 3 hrs post-viral infection by qRT-PCR analysis; type: functional, organism-based; conditions: dose 25-100 mg/kg/day, route nas, time 2-6 day
Influenza A virus [10] = experiment: Antiviral activity against Influenza A virus H1N1 infected in dog MDCK cells assessed as decrease in apoptosis by measuring proportion of necrotic cells at 50 uM measured after 72 hrs by AnnexinV-FITC/PI staining based flow cytometry (reference value: 2.47%); type: functional; design: scale not given: the % may be the effect or the level left
Influenza A virus [11] = experiment: Antiviral activity against Influenza A virus H1N1 infected in dog MDCK cells assessed as decrease in apoptosis by measuring proportion of viable cells at 25 uM measured after 72 hrs by AnnexinV-FITC/PI staining based flow cytometry (reference value: 62.9%); type: functional
Influenza A virus [12] = experiment: Antiviral activity against Influenza A virus H1N1 (A/Weiss/43)-infected in BALB/c mouse assessed as reduction in MyD88 gene expression in lungs at 25 to 100 mg/kg/day administered intranasally for 6 days starting from 3 hrs post-viral infection by qRT-PCR analysis; type: functional, organism-based; conditions: dose 25-100 mg/kg/day, route nas, time 6.0 day
Influenza A virus [13] = experiment: Antiviral activity against Influenza A virus H1N1 (A/Weiss/43)-infected in BALB/c mouse assessed as improvement in body weight at 25 to 100 mg/kg/day administered intranasally for 6 days starting from 3 hrs post-viral infection; type: functional, organism-based; conditions: dose 25-100 mg/kg/day, route nas, time 6.0 day
Influenza A virus [14] = experiment: Antiviral activity against Influenza A virus H1N1 (A/Weiss/43) infected in MDCK cells assessed as reduction of viral replication at 50 uM treated for 2 to 4 hrs after viral infection and measured after 72 hrs by MTT method; type: functional, organism-based; conditions: time 74-76 hrs
Influenza A virus [15] = experiment: Antiviral activity against Influenza A virus H1N1 infected in human A549 cells assessed as decrease in RIG-1 pathway related gene expression by measuring decrease in RIG-1 gene expression at 25 to 50 uM measured after 24 hrs by qRT-PCR analysis; type: functional, organism-based; conditions: dose 25-50 µM
Influenza A virus [16] = experiment: Inhibition of Influenza A virus replication infected in dog MDCK cells assessed as downregulation of virus NP gene expression at 25 to 50 uM measured after 24 to 72 hrs post-infection by qRT-PCR analysis; type: functional, organism-based; conditions: dose 25-50 µM
Erythrocyte = experiment: Inhibition of Hemagglutinin1 in Influenza A virus assessed as inhibition of virus-induced hemagglutination at 7.81 to 250 uM pretreated with virus for 30 mins followed by chicken RBC addition and measured after 1 hr; type: cell-based; conditions: dose 7.81-250 µM, time 90.0 min
Influenza A virus [17] = experiment: Antiviral activity against Influenza A virus H1N1 (A/Weiss/43)-infected in dog MDCK cells assessed as reduction in oxidative stress by measuring proportion of normal cells at 25 uM treated at 2 hrs post-infection and measured after 36 hrs by DCFH-DA staining based flow cytometry (reference value: 69.4%); type: functional; design: scale not given: the % may be the effect or the level left
[18] = Selectivity index, ratio of CC50 for dog MDCK cells to EC50 for antiviral activity against Influenza A virus H1N1 (A/Weiss/43) infected in MDCK cells treated for 2 hrs during viral adsorption and measured after 72 hrs; type: toxicity, cell-based; conditions: read-out: Ratio CC50/EC50
Influenza A virus [19] = experiment: Antiviral activity against Influenza A virus H1N1 (A/Weiss/43)-infected in BALB/c mouse assessed as reduction in TNF-alpha gene expression in lungs at 25 to 100 mg/kg/day administered intranasally for 6 days starting from 3 hrs post-viral infection by qRT-PCR analysis; type: functional, organism-based; conditions: dose 25-100 mg/kg/day, route nas, time 6.0 day
Influenza A virus [20] = experiment: Antiviral activity against Influenza A virus H1N1 infected in human A549 cells assessed as decrease in apoptosis by measuring decrease in cleaved caspase-7 protein expression at 25 to 50 uM measured after 24 hrs by western blot analysis; type: functional, organism-based; conditions: dose 25-50 µM
Influenza A virus [21] = experiment: Antiviral activity against Influenza A virus H1N1 (A/Weiss/43) infected in MDCK cells assessed as reduction of viral replication treated for 2 hrs during viral adsorption and measured after 72 hrs by TCID50 method; type: functional, organism-based
Influenza A virus [22] = experiment: Antiviral activity against Influenza A virus H1N1 (A/Weiss/43)-infected in BALB/c mouse assessed as reduction in IL-6 gene expression in lungs at 25 to 100 mg/kg/day administered intranasally for 6 days starting from 3 hrs post-viral infection by qRT-PCR analysis; type: functional, organism-based; conditions: dose 25-100 mg/kg/day, route nas, time 6.0 day
Influenza A virus [23] = experiment: Antiviral activity against Influenza A virus H1N1 infected in dog MDCK cells assessed as decrease in apoptosis by measuring proportion of early apoptotic cells at 50 uM measured after 72 hrs by AnnexinV-FITC/PI staining based flow cytometry (reference value: 24.3%); type: functional; design: scale not given: the % may be the effect or the level left

Structure (SMILES): O=[N+]([O-])c1ccc(S(=O)(=O)N(Cc2ccccc2)c2cccc3ccccc23)cc1
- Activity (Influenza A virus [1]): Active
- inhibition (Influenza A virus [2]): Active
- inhibition (Influenza A virus [3]): Active
- Activity (MDCK): Non-Toxic
- Activity [4]: Non-Toxic
- inhibition (Influenza A virus [5]): Active
- inhibition (Influenza A virus [6]): Active
- Activity (Influenza A virus [7]): Active
- Activity (Influenza A virus [8]): 4.66%
- Activity (Influenza A virus [9]): Active
- Activity (Influenza A virus [10]): 0.6%
- Activity (Influenza A virus [11]): 95.4%
- Activity (Influenza A virus [12]): Active
- Activity (Influenza A virus [13]): Active
- Activity (Influenza A virus [14]): Active
- inhibition (Influenza A virus [15]): Active
- inhibition (Influenza A virus [16]): Active
- inhibition (Erythrocyte): inactive
- Activity (Influenza A virus [17]): 87.7%
- selectivity ratio at 72 h [18]: > 131
- Activity (Influenza A virus [19]): Active
- inhibition (Influenza A virus [20]): Active
- EC50 (Influenza A virus [21]): 6.09 µM
- Activity (Influenza A virus [22]): Active
- Activity (Influenza A virus [23]): 2.93%
